Laboratory results from patent US5932580A, “PDGF receptor kinase inhibitory compounds their preparation and compositions” (priority 1997, dated 1999).
pIC50: −log10 of the molar value.

What was measured:
[1] = test system: human internal mammary artery smooth muscle cells (IMA SMC); assay: Inhibition of cell proliferation and recovery, human IMA SMC; type: cell-based
Text: Smooth muscle cells (SMC) were obtained under aseptic conditions from porcine abdominal aortas, and human internal mammary arteries (IMA). Specimens from the operating room were transferred on ice to the tissue culture room. Each artery was cut open and the endothelial surface mechanically scraped. The vessels were then cut into 2 mm^2 fragments which were placed in culture dishes with Dulbecco's modified Eagle's medium (DMEM) supplemented with 15% (v/v) fetal calf serum (FCS), 100 u/ml penicillin, 100 μg/ml streptomycin, and […] L-glutamine. The tissue fragments were then placed in an incubator at 37° C. under 9% CO2 atmosphere until SMC outgrowth was detected (typically within 3-7 days). […] For experiments testing the effect of tyrphostins on growth inhibition and recovery (see below), SMC from passages 1-3 were replated in 15 mm wells pretreated with 3 μg/cm^2 fibronectin (Biological Industries, Kibbutz Beit Haemek, Israel) at 15,000 cells/well.
Inhibition of cell proliferation and recovery: Monolayer cell growth inhibition and recovery experiments were repeated 3 or 4 times. Each experiment was performed in triplicate. Approximately 15,000 cells (SMC or EC) in 1 ml of culture medium supplemented with 15% FCS were seeded on day 0 in 15 mm-wells precoated with fibronectin. Cultures were treated with a tyrphostin (10 μM) dissolved in 0.1% DMSO on days 1 and 3. On day 6, cultures were washed and the cells allowed to recover. Typically cells were counted on days 3 and 5 for inhibition, and on days 7, 10 and 15 for recovery, other schedules were also employed as reported below. The medium supplemented with serum (M-199 with ECGS for EC, and DMEM for SMC) was changed every other day throughout the experiment.
FIG. 9 presents the maximal inhibitory and recovery effects on human IMA SMC growth inflicted by 10 or 25 μM of AG1851 and AG1295. Cells were grown in the presence of the specified tyrphostins and were counted after seven days in culture. On day 7 the cultures were washed and the cells allowed to recover. Seven days later they were counted for recovery. The bar graph show the maximal inhibition and the recovery in each experiment and for controls.

PDGFR = PDGFR autophosphorylation, isolated membranes or intact Swiss 3T3 cells; type: biochemical; conditions: read-out: IC50 (50% inhibition of phosphorylation) PDGFR
Description: Assay of receptor autophosphorylation in intact 3T3 cells: Confluent Swiss 3T3 cells in 24-well plates (Nunc) were incubated for 20-24 hours in serum-free DMEM. Subsequently, tyrphostins were added at concentrations ranging from 0 to 100 μM (final DMSO concentration, 0.5%) and the incubation was continued for 6-8 hours. The cells were then stimulated with 100 ng/ml PDGF-BB for 5 min at room temperature or 600 ng/ml EGF for 2.5 min on ice. The growth factor treatment was terminated by washing twice with ice-cold PBS and the cells were scraped off the wells in 60 μl lysis buffer containing 20 mM Hepes (pH 7.4), 150 mM NaCl, 1% Triton X-100, 10 mM sodium pyrophosphate, 50 mM NaF, 2 mM sodium-o-vanadate, 20 μm zinc acetate, 10 nM EDTA, 2 mM [ethylenebis(oxyethilenenitrilo)] tetraacetic acid, 1 mM phenylmethylsulfonyl fluoride, and 5 μg/ml leupeptin.
The cell lysates were clarified by centrifugation (cooled microfuge, 17,000 rpm, 15 min) and analyzed by SDS-PAGE (6.5% gels) and immunoblotting with anti-phosphotyrosine antibodies (either PY 20, ICN, and subsequently a peroxidase-coupled secondary antibody, or RC20-peroxidase conjugate, Affinity, Nottingham, United Kingdom). The blots were developed with a chemiluminescence detection system (Western Light, Tropix, or ECL, Amersham). In some experiments PDGF receptors were immunoprecipitated with PDGF-R3 or DIG-1 antibodies as described prior to the analysis by immunoblotting with anti-phosphotyrosine antibodies.
Membrane autophosphorylation assays: Membranes were prepared from confluent cultures of Swiss 3T3 cells as described. For measuring receptor autophosphorylation, 10 μg membrane protein per assay were incubated for 20 min on ice in the presence of 1.2 μg/ml EGF or 2 μg/ml PDGF, or both; 50 mM Hepes (pH 7.5); and 3 mm MnCl2 (final concentrations) in a volume of 45 μl. […] For quantification of radioactivity in electrophoresis gels, a Phospho-Imager (Molecular Dynamics, Fuji, or Bio-Rad) was used according to the instructions of the manufacturers. […]

[2] = test system: porcine endothelial cells (EC); assay: Inhibition of cell proliferation and recovery, porcine EC; type: cell-based; conditions: Sus scrofa, Endothelial cell; FIG. 8 experiment; 10 μM; read-out: maximal inhibitory effect on porcine EC proliferation
Text: Endothelial cells (EC) were isolated from porcine carotid arteries. Using aseptic procedure, both common carotid arteries were isolated, and the distal end of each artery was cannulated through an arteriotomy and ligated. The arteries were then perfused with phosphate buffered saline (PBS) and the proximal end ligated isolating a 5-7 cm long blood-free portion of the artery. The isolated portion of each artery was filled with PBS containing calcium and magnesium and 0.1% collagenase (Boehringer Manneheim, Germany). The segments were excised and incubated for 10 min at 37° C. in sterile bottles containing PBS. […] Cells were seeded on fibronectin-coated dishes at a seeding density of 15,000 cells/well and incubated at 37° C. in 9% CO2. ECGS (25 μg/ml) was added every other day until confluence was observed, typically within 6-8 days.
Inhibition of cell proliferation and recovery: Monolayer cell growth inhibition and recovery experiments were repeated 3 or 4 times. Each experiment was performed in triplicate. […] Cultures were treated with a tyrphostin (10 μM) dissolved in 0.1% DMSO on days 1 and 3. On day 6, cultures were washed and the cells allowed to recover. Typically cells were counted on days 3 and 5 for inhibition, and on days 7, 10 and 15 for recovery, other schedules were also employed as reported below.

`Cc1nc2cc3nc(-c4ccccc4)cnc3cc2n1C` [AG1851] was tested. Which “reversibility of the effect on IMA SMC upon removal of the tyrphostin” value ([1]; 25 μM) did it give?
The value was “completely reversible”.

And the inhibition at 25 µM ([1]; Homo sapiens, 120 h, read-out: mean reduction / inhibition of IMA SMC proliferation compared to untreated or DMSO-treated cells)?
Its inhibition at 25 µM is 54%.

And the pIC50 (PDGFR)?
The pIC50 was 5.30.

With `Cc1nc2cc3nc(-c4cccs4)cnc3cc2n1C` [AG1992] as the compound, how does the inhibition at 10 µM [2] read?
The inhibition at 10 µM was 52%.

What about the pIC50 (PDGFR) of the same compound?
Its pIC50 is 6.00.
